Reference: patent US8933113B2 (Merck Sharp & Dohme Corp., priority 2011, dated 2015)

Target: T1, full-length human Mineralocorticoid Receptor (MR) (Homo sapiens, UniProt P08235)
T1 construct: host or cells: PathHunter CHO-K1 cells
T1 sequence (P08235 1-984): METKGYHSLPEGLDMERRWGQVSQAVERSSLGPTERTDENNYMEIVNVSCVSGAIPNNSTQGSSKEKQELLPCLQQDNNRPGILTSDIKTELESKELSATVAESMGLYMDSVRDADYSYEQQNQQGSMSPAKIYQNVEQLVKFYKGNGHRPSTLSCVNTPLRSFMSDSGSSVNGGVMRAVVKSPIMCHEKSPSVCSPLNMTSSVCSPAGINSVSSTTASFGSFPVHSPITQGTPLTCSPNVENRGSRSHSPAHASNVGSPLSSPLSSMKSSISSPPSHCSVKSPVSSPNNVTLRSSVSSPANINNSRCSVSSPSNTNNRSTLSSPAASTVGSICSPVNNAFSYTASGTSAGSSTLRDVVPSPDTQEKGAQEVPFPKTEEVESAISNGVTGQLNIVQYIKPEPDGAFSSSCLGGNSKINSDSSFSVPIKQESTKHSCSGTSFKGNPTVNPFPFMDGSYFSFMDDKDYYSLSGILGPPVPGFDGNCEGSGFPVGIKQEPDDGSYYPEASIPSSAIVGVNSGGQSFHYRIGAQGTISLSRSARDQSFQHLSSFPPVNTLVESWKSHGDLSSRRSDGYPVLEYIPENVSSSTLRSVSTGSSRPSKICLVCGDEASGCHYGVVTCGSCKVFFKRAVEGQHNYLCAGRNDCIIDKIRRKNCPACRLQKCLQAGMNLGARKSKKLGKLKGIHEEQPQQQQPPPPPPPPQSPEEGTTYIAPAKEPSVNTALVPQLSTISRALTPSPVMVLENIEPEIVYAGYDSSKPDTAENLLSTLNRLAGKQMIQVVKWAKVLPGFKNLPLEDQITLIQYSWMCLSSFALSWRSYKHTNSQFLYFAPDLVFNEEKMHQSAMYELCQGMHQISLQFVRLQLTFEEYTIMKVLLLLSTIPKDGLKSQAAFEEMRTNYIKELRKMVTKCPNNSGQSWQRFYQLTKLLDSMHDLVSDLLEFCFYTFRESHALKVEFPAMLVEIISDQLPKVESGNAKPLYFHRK
Experiment: human MR NH Pro assay (PathHunter Protein:Protein interaction assay), MR antagonist activity
Assay type: cell-based
Details: PathHunter CHO-K1 cells overexpressing human MR; aldosterone about 0.3 nM; 6 hours at 37° C.; luminescence; read-out: Primary Assay IP rating (IP = inflection point for a given dose-response titration curve)
Excerpt: The activity of the compounds of the present invention regarding mineralocorticoid receptor antagonism can be evaluated using the following assay.
Assessment of MR Potency in HMR NH Pro Assay
The human MR NH Pro assay is a commercially available PathHunter™ Protein:Protein interaction assay (DiscoveRx; http://www.discoverx.com/nhrs/prod-nhrs.php) that measures the ability of compounds to antagonize full-length human Mineralocorticoid Receptor (MR) binding to a coactivator peptide.
6. Test compounds are titrated starting at 4.4 mM, 10-point titration in 1:3 dilution.
3. Add 5 μL 6× agonist (final aldosterone concentration should be about 0.3 nM to about 1.0 nM) to all wells (using the PlateMate Plus.)
• (ThermoFisher) (except those wells in columns 23 and 24) 4. Add 5 uL of assay media to all wells in column 23 and 24. 5. Incubate 6 hrs at 37° C., 5% CO2. 6. Add 15 uL 3× DiscoveRx detection reagent to each well. 7. Incubate 1 hour at room temperature (keep plates stored in the dark). 8. Read plates on Envision (PerkinElmer) luminesence plate reader and analyze using ADA.

Row | IC50 | Structure (SMILES)
1 | 500 to 5000 nM | COC(=O)C(c1ccc(Cl)cc1)n1ncc2c(NS(C)(=O)=O)cccc21 (stereo not drawn) [Compound 19, methyl (4-chlorophenyl){4-[(methylsulfonyl)amino]-1H-indazol-1-yl}acetate]
2 | 500 to 5000 nM | COC(=O)C(c1ccc(Br)cc1)n1ccc2c(NS(C)(=O)=O)cccc21 (stereo not drawn) [Compound 24, methyl (4-bromophenyl){4-[(methylsulfonyl)amino]-1H-indol-1-yl}acetate]
3 | 100 to 500 nM | CCC(C(=O)OC(C)(C)C)(c1ccc(Cl)cc1)n1ccc2c(NS(C)(=O)=O)cccc21 (stereo not drawn) [Compound 26, tert-Butyl 2-(4-chlorophenyl)-2-{4-[(methylsulfonyl)amino]-1H-indol-1-yl}butanoate]
4 | 100 to 500 nM | CC(C)(C)OC(=O)C(CC#N)(c1ccc(Cl)cc1)n1ccc2c(NS(C)(=O)=O)cccc21 (stereo not drawn) [Compound 27, tert-Butyl 2-(4-chlorophenyl)-3-cyano-2-{4-[(methylsulfonyl)amino]-1H-indol-1-yl}propanoate]
5 | 500 to 5000 nM | COC(=O)C(C)(c1ccc(Cl)cc1Cl)n1ccc2c(NS(C)(=O)=O)cccc21 (stereo not drawn) [Compound 29, Methyl 2-(2,4-dichlorophenyl)-2-{4-[(methylsulfonyl)amino]-1H-indol-1-yl}propanoate]
6 | 100 to 500 nM | CCC(C(=O)OC)(c1ccc(Cl)cc1Cl)n1ccc2c(NS(C)(=O)=O)cccc21 (stereo not drawn) [Compound 30, Methyl 2-(2,4-dichlorophenyl)-2-{4-[(methylsulfonyl)amino]-1H-indol-1-yl}butanoate]
7 | 100 to 500 nM | CCC(C(=O)OC)(c1ccc(F)cc1Cl)n1ccc2c(NS(C)(=O)=O)cccc21 (stereo not drawn) [Compound 31, Methyl 2-(2-chloro-4-fluorophenyl)-2-{4-[(methylsulfonyl)amino]-1H-indol-1-yl}butanoate]
8 | 100 to 500 nM | CCC(C(=O)OC)(c1ccc(Cl)cc1)n1ncc2c(NS(C)(=O)=O)cccc21 (stereo not drawn) [Compound 32, Methyl 2-(4-chlorophenyl)-2-{4-[(methylsulfonyl)amino]-1H-indazol-1-yl}butanoate]
9 | 100 to 500 nM | C=CCC(C(=O)OC)(c1ccc(Cl)cc1)n1ccc2c(NS(C)(=O)=O)cccc21 (stereo not drawn) [Compound 33, Methyl 2-(4-chlorophenyl)-2-{4-[(methylsulfonyl)amino]-1H-indol-1-yl}pent-4-enoate]
10 | < 100 nM | COC(=O)CC(C(=O)OC)(c1ccc(Cl)cc1)n1ccc2c(NS(C)(=O)=O)cccc21 (stereo not drawn) [Compound 35, Dimethyl 2-(4-chlorophenyl)-2-{4-[(methylsulfonyl)amino]-1H-indol-1-yl}butanedioate]
11 | 100 to 500 nM | CC[C@](C(N)=O)(c1ccc(Cl)cc1)n1ccc2c(NS(C)(=O)=O)cccc21 [Compound 40, (R)-2-(4-chlorophenyl)-2-{4-[(methylsulfonyl)amino]-1H-indol-1-yl}butanamide]
12 | 100 to 500 nM | CC[C@](C(=O)NC1CC1)(c1ccc(Cl)cc1)n1ccc2c(NS(C)(=O)=O)cccc21 [Compound 41, (R)-2-(4-chlorophenyl)-N-cyclopropyl-2-{4-[(methylsulfonyl)amino]-1H-indol-1-yl}butanamide]
13 | 500 to 5000 nM | CCC(C(=O)NCCOC)(c1ccc(Cl)cc1)n1ccc2c(NS(C)(=O)=O)cccc21 (stereo not drawn) [Compound 42, 2-(4-chlorophenyl)-N-(2-methoxyethyl)-2-{4-[(methylsulfonyl)amino]-1H-indol-1-yl}butanamide]
14 | 500 to 5000 nM | CC[C@](C(=O)NCc1ccccc1)(c1ccc(Cl)cc1)n1ccc2c(NS(C)(=O)=O)cccc21 [Compound 43, (R)—N-benzyl-2-(4-chlorophenyl)-2-{4-[(methylsulfonyl)amino]-1H-indol-1-yl}butanamide]
15 | 100 to 500 nM | CC[C@](C(=O)NC(C)C)(c1ccc(Cl)cc1)n1ccc2c(NS(C)(=O)=O)cccc21 [Compound 44, (R)-2-(4-chlorophenyl)-N-(1-methylethyl)-2-{4-[(methylsulfonyl)amino]-1H-indol-1-yl}butanamide]
16 | 100 to 500 nM | CCNC(=O)C(CC)(c1ccc(Cl)cc1)n1ccc2c(NS(C)(=O)=O)cccc21 (stereo not drawn) [Compound 46, 2-(4-chlorophenyl)-N-ethyl-2-{4-[(methylsulfonyl)amino]-1H-indol-1-yl}butanamide]
17 | 500 to 5000 nM | CCC(C(=O)NCCC#N)(c1ccc(Cl)cc1)n1ccc2c(NS(C)(=O)=O)cccc21 (stereo not drawn) [Compound 48, 2-(4-chlorophenyl)-N-(2-cyanoethyl)-2-{4-[(methylsulfonyl)amino]-1H-indol-1-yl}butanamide]
18 | 100 to 500 nM | CCC(C(=O)NCCF)(c1ccc(Cl)cc1)n1ccc2c(NS(C)(=O)=O)cccc21 (stereo not drawn) [Compound 49, 2-(4-chlorophenyl)-N-(2-fluoroethyl)-2-{4-[(methylsulfonyl)amino]-1H-indol-1-yl}butanamide]
19 | 500 to 5000 nM | CCC(C(=O)NCCc1ccccc1)(c1ccc(Cl)cc1)n1ccc2c(NS(C)(=O)=O)cccc21 (stereo not drawn) [Compound 50, 2-(4-chlorophenyl)-2-{4-[(methylsulfonyl)amino]-1H-indol-1-yl}-N-(2-phenylethyl)butanamide]
20 | < 100 nM | CCC(C(=O)NCC#N)(c1ccc(Cl)cc1)n1ccc2c(NS(C)(=O)=O)cccc21 (stereo not drawn) [Compound 51, 2-(4-chlorophenyl)-N-(cyanomethyl)-2-{4-[(methylsulfonyl)amino]-1H-indol-1-yl}butanamide]
21 | 100 to 500 nM | CCC(C(=O)NCC(=O)OC)(c1ccc(Cl)cc1)n1ccc2c(NS(C)(=O)=O)cccc21 (stereo not drawn) [Compound 52, methyl N-[2-(4-chlorophenyl)-2-{4-[(methylsulfonyl)amino]-1H-indol-1-yl}butanoyl]glycinate]
22 | 100 to 500 nM | CNC(=O)C(CC#N)(c1ccc(Cl)cc1)n1ccc2c(NS(C)(=O)=O)cccc21 (stereo not drawn) [Compound 53, 2-(4-chlorophenyl)-3-cyano-N-methyl-2-{4-[(methylsulfonyl)amino]-1H-indol-1-yl}propanamide]
23 | 100 to 500 nM | CS(=O)(=O)Nc1cccc2c1ccn2C(CC#N)(C(=O)NCc1ccccc1)c1ccc(Cl)cc1 (stereo not drawn) [Compound 54, N-benzyl-2-(4-chlorophenyl)-3-cyano-2-{4-[(methylsulfonyl)amino]-1H-indol-1-yl}propanamide]
24 | 100 to 500 nM | CS(=O)(=O)Nc1cccc2c1ccn2C(CC#N)(C(=O)NCC(F)(F)F)c1ccc(Cl)cc1 (stereo not drawn) [Compound 55, 2-(4-chlorophenyl)-3-cyano-2-{4-[(methylsulfonyl)amino]-1H-indol-1-yl}-N-(2,2,2-trifluoroethyl)propanamide]
25 | 100 to 500 nM | CNC(=O)C(CC1CC1)(c1ccc(Cl)cc1)n1ccc2c(NS(C)(=O)=O)cccc21 (stereo not drawn) [Compound 56, 2-(4-chlorophenyl)-3-cyclopropyl-N-methyl-2-{4-[(methylsulfonyl)amino]-1H-indol-1-yl}propanamide]
26 | < 100 nM | CCC(c1ccc(Cl)cc1)(c1noc(-c2ccc(F)cc2)n1)n1ccc2c(NS(C)(=O)=O)cccc21 (stereo not drawn) [Compound 59, N-(1-{1-(4-chlorophenyl)-1-[5-(4-fluorophenyl)-1,2,4-oxadiazol-3-yl]propyl}-1H-indol-4-yl)methanesulfonamide]
27 | < 100 nM | CCC(c1ccc(Cl)cc1)(c1noc(-c2ccc(Cl)cc2)n1)n1ccc2c(NS(C)(=O)=O)cccc21 (stereo not drawn) [Compound 60, N-(1-{1-(4-chlorophenyl)-1-[5-(4-chlorophenyl)-1,2,4-oxadiazol-3-yl]propyl}-1H-indol-4-yl)methanesulfonamide]
28 | < 100 nM | CC[C@@](c1ccc(Cl)cc1)(c1noc(-c2ccc(OC)cc2)n1)n1ccc2c(NS(C)(=O)=O)cccc21 [Compound 61, (R)—N-(1-{1-(4-chlorophenyl)-1-[5-(4-methoxyphenyl)-1,2,4-oxadiazol-3-yl]propyl}-1H-indol-4-yl)methanesulfonamide]
29 | 500 to 5000 nM | CS(=O)(=O)Nc1cccc2c1ccn2C(c1ccc(Cl)cc1)c1nc(-c2ccccc2)no1 (stereo not drawn) [Compound 63, N-{1-[(4-chlorophenyl)(3-phenyl-1,2,4-oxadiazol-5-yl)methyl]-1H-indol-4-yl}methanesulfonamide]

Row | Structure (SMILES) | IC50
30 | CC[C@@](c1ccc(Cl)cc1)(c1noc(C)n1)n1ccc2c(NS(C)(=O)=O)cccc21 [Compound 57] | < 100 nM
